Results reported in patent US20130018061A1, “Method for Improving Exercise and Recovery From Exercise” (priority 2011, published 2013).

Assays:
[1] = 250 mg caffeine, 200 mg L-theanine, or both; cited from earlier work
[2] = Study 2; effects typically experienced with high amounts of caffeine
Method: In this first study, twenty-one subjects (20 male, 1 female), all healthy and between the ages of 20 and 35 years were given the pre-workout supplement in capsule form to be taken 30 to 45 minutes before exercise on an empty stomach in place of any regularly consumed pre-workout product prior to the next exercise session. Subjects were instructed to maintain normal diet and activity. Subjects were surveyed for ratings of perceived effects on energy levels and mental focus. Subjects were also advised to supply general comments regarding the supplement in terms of negative side effects, comparison to other products, overall satisfaction and effectiveness.

[3] = absorbed in the small intestine; cited from earlier work
[4] = 50 mg or 200 mg after cycling exercise, fourteen healthy male subjects; cited from earlier work

SMILES | effect on alertness, anxiety and blood pressure [1] | jitters and energy crash [2] | time of peak plasma levels [3] | post-exercise mental regeneration [4]
Cn1c(=O)c2c(ncn2C)n(C)c1=O [caffeine, 1,3,7-trimethylxanthine] | increased alertness, anxiety, and blood pressure | – | – | –
CCNC(=O)CC[C@H](N)C(=O)O [L-theanine, γ-N-ethylglutamine] | only acted to counter the increase in blood pressure | prevented jitters and the energy crash | ≤ 30 min | accelerated post-exercise mental regeneration
